This assay deals with T1, MAP2K1 (MEK1) (Homo sapiens, UniProt Q02750).
T1 construct: purchased Thermo Fisher Scientific (Life Technologies) SelectScreen
Put plainly: SelectScreen Z'LYTE. Particulars: ATP 100 µM. The assay is classed as biochemical. The method in brief: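 SelectScreen broad panel; activity (Z'LYTE, Adapta) plus binding formats. ATP: Km app for CSF1R Z'LYTE; 10 for CAMK1 Adapta. Readout = % per kinase.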

SMILES strings stand for the structures.

T1 sequence (Q02750 whole entry): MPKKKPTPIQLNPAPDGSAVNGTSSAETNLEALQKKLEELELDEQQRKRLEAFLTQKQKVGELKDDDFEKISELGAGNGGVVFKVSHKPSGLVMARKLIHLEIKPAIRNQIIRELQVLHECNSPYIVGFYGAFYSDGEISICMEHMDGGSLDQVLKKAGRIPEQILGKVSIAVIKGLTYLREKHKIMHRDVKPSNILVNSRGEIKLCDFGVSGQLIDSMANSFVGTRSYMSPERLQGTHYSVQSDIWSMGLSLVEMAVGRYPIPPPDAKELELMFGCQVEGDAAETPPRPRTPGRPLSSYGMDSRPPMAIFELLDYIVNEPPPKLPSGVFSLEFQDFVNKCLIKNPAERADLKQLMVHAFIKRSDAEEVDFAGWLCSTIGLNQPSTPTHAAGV

For the molecule `CN(C(=O)CN1CCOCC1)c1ccc2sc3c(-c4cccc5c(=O)cc(N6CC7CCC(C6)O7)oc45)cccc3c2c1` [NU5455], the inhibition (in general, the drop in the measured response relative to a control, in per cent) at 1 µM worked out at 8.8%.

Source of the values: PMC6934184, “Selective DNA-PKcs inhibition extends the therapeutic index of localized radiotherapy and chemotherapy” (The Journal of Clinical Investigation, 2019).
